Tested on: patients with advanced renal cell carcinoma
Test: METEOR quality of life (FKSI-19, FKSI-DRS, EQ-5D-5L) and time to deterioration
Assay type: in vivo, human
Conditions: for EQ-Index, Evero Intercept (change at Week 4) / EQ-VAS, Evero Intercept (change at Week 4) / FKSI-19 Total, Evero Intercept (change at Week 4) / FKSI-DRS (9-item), Evero Intercept (change at Week 4): growth curve analysis
Description: Patients completed the 19-item Functional Assessment of Cancer Therapy-Kidney Symptoms Index (FKSI-19) and the 5-level EuroQoL-5 Dimensions (EQ-5D-5L) questionnaires at baseline and throughout the study. The 9-item FKSI-Disease Related Symptoms (FKSI-DRS) is a subset of FKSI-19. Data were summarized descriptively and by mixed-effects repeated-measures analysis (clinically relevant difference was an effect size ≥0.3). Time to deterioration (TTD) was defined as earlier of death, radiographic progressive disease or ≥4-point decrease from baseline in FKSI-DRS.
QoL was measured by using two validated patient self-reported instruments: the Functional Assessment of Cancer Therapy-Kidney Symptom Index-19 item (FKSI-19) and EuroQol Group's EQ-5D-5L questionnaires. Patients were required to complete the QoL questionnaires before any assessments at each clinic visit prior to the first dose, every 4 weeks through Week 25, every 8 weeks thereafter for the first year, then every 12 weeks thereafter. The QoL assessments were conducted per protocol prior to the patient knowing the results of their next tumor assessment. These assessments were performed regardless of whether study treatment was given, reduced, interrupted, or discontinued until the date of the last tumor imaging assessment. Questionnaires were provided on paper in the patient's own language.
The FKSI-19 instrument is a 19-item self-reported questionnaire with a total score and four subscales that assesses disease-related symptoms (DRS), treatment side effects, and function/well-being associated with advanced kidney cancer. It queries symptom severity and interference in activity and general health perceptions (Rao D, Butt Z, Rosenbloom S, Robinson D Jr, Von Roenn J, Kuzel T M, Cella D. A Comparison of the Renal Cell Carcinoma-Symptom Index (RCC-SI) and the Functional Assessment of Cancer Therapy-Kidney Symptom Index (FKSI). J Pain Symptom Manage. 2009; 38(2):291-8; Rothrock N E, Jensen S E, Beaumont J L, Abernethy A P, Jacobsen P B, Syrjala K, Cella D. Development and initial validation of the NCCN/FACT symptom index for advanced kidney cancer. Value Health. 2013; 16(5):789-96). The FKSI-19 comprises four sub-scales (DRS-Physical, DRS-Emotional, Treatment Side Effects, and Function/Well Being; Table 2.1). Each of the items is scored on a 5-point scale from 0 (not at all) to 4 (very much). Higher FKSI-19 scores indicate improvement. The FKSI-19 ensures content validity congruent with FDA Guidance (FDA. Guidance for Industry. Patient-Reported Outcome Measures: Use in Medical Product Development to Support Labeling Claims. December 2009). and was developed from a previous 9-item DRS version (FKSI-DRS; lack of energy, pain, losing weight, fatigue, short of breath, fevers, bone pain, coughing, blood in urine). The FKSI-19 includes selected treatment side effects that are important to the patient and physician.
The standardized measure of health status EQ-5D-5L, developed by the EuroQol, was also used in this study in order to measure generic health status (Herdman M, Gudex C, Lloyd A, Janssen M, Kind P, Parkin D, t al. Development and preliminary testing of the new five-level version of EQ-5D (EQ-5D-5L). Qual Life Res. 2011; 20(10):1727-36). It comprises five functional and symptom dimensions: mobility, self-care, usual activities, pain/discomfort, and anxiety/depression. Levels indicate increasing severity from Level 1 (no problem) to Levels 2 through 5 (mild problem to extreme problem). The digits from the 5 dimensions were converted into a single population-based index value normalized across the nine countries in the study for which index value sets were available (van Hout B, Janssen M F, Feng Y S, Kohlmann T, Busschbach J, Golicki D, et al. Interim scoring for the EQ-5D-5L: mapping the EQ-5D-5L to EQ-5D-3L value sets. Value Health. 2012; 15(5):708-15). Index values range from 0 to 1 and a higher index score indicates better health. […]

[1] = FKSI-19 item, repeated measures, ITT
[2] = FKSI-19 subscale, repeated measures, ITT
[3] = Late Dropout (Week 41 or later)

CO[C@H]1C[C@@H]2CC[C@@H](C)[C@@](O)(O2)C(=O)C(=O)N2CCCC[C@H]2C(=O)O[C@H]([C@H](C)C[C@@H]2CC[C@@H](OCCO)[C@H](OC)C2)CC(=O)[C@H](C)/C=C(\C)[C@@H](O)[C@@H](OC)C(=O)[C@H](C)C[C@H](C)/C=C/C=C/C=C/1C [everolimus]
Able to work, LSMean change from baseline [1]: −0.101 | Blood in my urine, LSMean change from baseline [1]: −0.001 | Bone pain, LSMean change from baseline [1]: 0.057 | Content with quality life, LSMean change from baseline [1]: −0.017 | Coughing, LSMean change from baseline [1]: −0.059 | Diarrhea, LSMean change from baseline [1]: −0.326 | Enjoy life, LSMean change from baseline [1]: −0.014 | Fatigued, LSMean change from baseline [1]: −0.305 | Fevers, LSMean change from baseline [1]: −0.021 | Good appetite, LSMean change from baseline [1]: 0.181 | Lack of energy, LSMean change from baseline [1]: −0.207 | Losing weight, LSMean change from baseline [1]: −0.301 | Nausea, LSMean change from baseline [1]: 0.069 | Pain, LSMean change from baseline [1]: 0.067 | Short of breath, LSMean change from baseline [1]: −0.271 | Side effects of treatment, LSMean change from baseline [1]: −0.523 | Sleeping well, LSMean change from baseline [1]: −0.152 | Weak all over, LSMean change from baseline [1]: −0.265 | Worry condition worsen, LSMean change from baseline [1]: 0.393 | DRS-Emotional, LSMean change from baseline [2]: 0.393 | DRS-Physical, LSMean change from baseline [2]: −1.386 | Function/Well-Being, LSMean change from baseline [2]: −0.169 | Treatment Side Effects, LSMean change from baseline [2]: −0.814 | Median TTD (bone metastases per IRC at baseline: No): 3.8 mo | Median TTD (bone metastases per IRC at baseline: Yes): 1.9 mo | EQ-Index, Evero Intercept (change at Week 4) (Early Dropout (before Week 24)): −0.046 | EQ-VAS, Evero Intercept (change at Week 4) (Early Dropout (before Week 24)): −2.474 | FKSI-19 Total, Evero Intercept (change at Week 4) (Early Dropout (before Week 24)): −3.643 | FKSI-DRS (9-item), Evero Intercept (change at Week 4) (Early Dropout (before Week 24)): −2.002 | EQ-Index, Evero Intercept (change at Week 4) [3]: 0.033 | EQ-VAS, Evero Intercept (change at Week 4) [3]: 1.012 | FKSI-19 Total, Evero Intercept (change at Week 4) [3]: 1.105 | FKSI-DRS (9-item), Evero Intercept (change at Week 4) [3]: 0.453 | EQ-Index, Evero Intercept (change at Week 4) (Median Dropout (Weeks 25-33)): −0.018 | EQ-VAS, Evero Intercept (change at Week 4) (Median Dropout (Weeks 25-33)): −1.181 | FKSI-19 Total, Evero Intercept (change at Week 4) (Median Dropout (Weeks 25-33)): −1.838 | FKSI-DRS (9-item), Evero Intercept (change at Week 4) (Median Dropout (Weeks 25-33)): −0.843 | Median time to deterioration (TTD) (overall ITT, earlier of death, rPD, ≥4-point FKSI-DRS decrease from baseline): 3.7 mo | EQ-Index, LSMean change from baseline (repeated measures, ITT): −0.02 | EQ-VAS, LSMean change from baseline (repeated measures, ITT): −1.27 | FKSI-19 (19-item) Total Score, LSMean change from baseline (repeated measures, ITT): −2.214 | FKSI-DRS (9-item), LSMean change from baseline (repeated measures, ITT): −0.93
